# Earlier results in patent publication US11395812B2, “Docetaxel albumin nanoparticle pharmaceutical composition, preparation method therefor and use thereof” (SICHUAN KELUN PHARMACEUTICAL RESEARCH INSTITUTE CO. LTD., priority 2015, dated 2022).
# Molecular target: T1, recombinant human cytochrome P4501B1 (hCYP1B1) (Homo sapiens, UniProt Q16678)
# T1 sequence (Q16678 1-543): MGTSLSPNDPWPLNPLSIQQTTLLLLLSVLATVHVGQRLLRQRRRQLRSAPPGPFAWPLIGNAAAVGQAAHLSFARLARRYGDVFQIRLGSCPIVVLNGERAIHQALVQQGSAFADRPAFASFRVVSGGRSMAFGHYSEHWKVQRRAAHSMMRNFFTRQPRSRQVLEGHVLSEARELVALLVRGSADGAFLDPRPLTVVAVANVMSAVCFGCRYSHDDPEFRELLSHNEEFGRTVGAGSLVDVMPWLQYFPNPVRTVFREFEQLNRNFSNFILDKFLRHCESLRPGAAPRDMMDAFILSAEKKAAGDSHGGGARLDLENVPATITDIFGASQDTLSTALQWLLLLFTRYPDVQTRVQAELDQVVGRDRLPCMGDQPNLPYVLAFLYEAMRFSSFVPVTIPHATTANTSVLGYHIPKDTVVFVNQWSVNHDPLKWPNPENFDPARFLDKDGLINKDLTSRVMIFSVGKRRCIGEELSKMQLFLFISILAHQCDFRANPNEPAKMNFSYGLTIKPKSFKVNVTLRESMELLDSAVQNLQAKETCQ
# Details: in vitro test
smiles,measurement,value
CC(=O)O[C@@]12CO[C@@H]1C[C@@H](O)[C@@]1(C)C(=O)[C@H](O)C3=C(C)[C@@H](OC(=O)[C@H](O)[C@@H](NC(=O)OC(C)(C)C)c4ccccc4)C[C@@](O)([C@@H](OC(=O)c4ccccc4)[C@H]21)C3(C)C [7-epi-docetaxel],increase of the activity of hCYP1B1,more than 7 times
